Experimental data from PubChem BioAssay AID330 (DTP/NCI, 2004).
Where “and” joins values, the source holds several entries; their conditions need not be identical. Identical values can stand only once. Toxic doses and inconclusive results are not listed. How the source made its calls: active means survival T/C of 150% or more; inactive means T/C below 125% in these data.

Tested on: P388 leukemia ip, CD2F1 mice, survival T/C
Test: NCI In Vivo Anticancer Drug Screen. Data for tumor model P388 Leukemia (intraperitoneal) in CD2F1 (CDF1) mice
Conditions: endpoint: median survival time, higher = longer survival
In short: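 Mice carrying the transplanted tumor received test compound or vehicle. Survival was recorded in each group, and the value is the treated-group measurement divided by that of the vehicle-treated control group.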

Measured: T/C

C=C1C(=O)OC2/C=C(\C)C3OC3/C=C(/C(=O)OC)C(O)C(OC(=O)C3(C)OC3C)C12 (configuration not stated)
inactive: dose: 3.0 mg/kg/injection, schedule: Q01DX009 (ip), vehicle: Klucel (hydroxypropylcellulose) (HPC) 115 % of control and 123 % of control | dose: 6.0 mg/kg/injection, schedule: Q01DX009 (ip), vehicle: Klucel (hydroxypropylcellulose) (HPC) 120 % of control and 123 % of control | dose: 12.0 mg/kg/injection, schedule: Q01DX009 (ip), vehicle: Klucel (hydroxypropylcellulose) (HPC) 119 % of control | dose: 24.0 mg/kg/injection, schedule: Q01DX009 (ip), vehicle: Klucel (hydroxypropylcellulose) (HPC) 94 % of control

N=c1ccn(O)cc1
inactive: dose: 6.25 mg/kg/injection, schedule: Q01DX005 (ip), vehicle: saline 101 % of control | dose: 12.5 mg/kg/injection, schedule: Q01DX005 (ip), vehicle: saline 107 % of control | dose: 12.5 mg/kg/injection, schedule: Q01DX009 (ip), vehicle: saline 111 % of control | dose: 25.0 mg/kg/injection, schedule: Q01DX005 (ip), vehicle: saline 102 % of control | dose: 25.0 mg/kg/injection, schedule: Q01DX009 (ip), vehicle: saline 111 % of control

CC/C(C)=C1\OC(=O)C(C)C(O)C(Cc2cccnc2)NC(=O)C(NC(=O)c2ncccc2O)C(C)OC1=O (configuration not stated)
inactive: dose: 18.75 mg/kg/injection, schedule: Q01DX009 (ip), vehicle: saline with Tween-80 88 % of control | dose: 37.5 mg/kg/injection, schedule: Q01DX009 (ip), vehicle: saline with Tween-80 86 % of control | dose: 150.0 mg/kg/injection, schedule: Q01DX009 (ip), vehicle: saline with Tween-80 86 % of control
